Among the data in BindingDB's records for doi:10.1073/pnas.0511292103 (Genomics Institute of The Novartis Research Foundation, 2006) are Ki values, retold here.

Broadly, the Ki is a dissociation constant, usually derived from enzyme kinetics or from competition with a known ligand. Higher therefore signals lower affinity.

The assay deals with T1, Ret proto-oncogene (Homo sapiens, UniProt Q9UE13).
T1 sequence (Q9UE13 whole entry): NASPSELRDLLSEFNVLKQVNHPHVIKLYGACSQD

The compound `Cc1cn(-c2cc(NC(=O)c3ccc(C)c(Nc4nccc(-c5cccnc5)n4)c3)cc(C(F)(F)F)c2)cn1` [AMN 107] returned a Ki of 8.68 µM.

Consider `Cc1ccc(NC(=O)c2ccc(CN3CCN(C)CC3)cc2)cc1Nc1nccc(-c2cccnc2)n1`, for which the Ki was > 10 µM.
